Test results reported in patent US10485844B2, “Methods for treating severe atopic dermatitis by administering an IL-4R inhibitor” (Regeneron Pharmaceuticals, Inc., priority 2016, dated 2019).

Tested on: CYP3A
Assay: Effect of dupilumab on PK of CYP substrate cocktail: midazolam
Conditions: oral cocktail before (Day 1) and during dupilumab 300 mg weekly (Day 36); n = 13
Description: Subcutaneous dupilumab was administered as a 600 mg loading dose on Day 8, followed by a weekly dose of 300 mg from Day 15 to Day 50. PK parameters included Geometric Mean Ratios (GMR) of AUClast (area under the plasma concentration-time curve from time zero to the time of the last quantifiable concentration) and Cmax (maximum observed plasma concentration) measured at Day 1 and Day 36, while efficacy assessments included changes in Eczema Area and Severity Index (EASI) scores (scale 0-72).

## Cc1ncc2n1-c1ccc(Cl)cc1C(c1ccccc1F)=NC2 [midazolam, reference compound]
  Geometric Mean Ratio (Day 36/Day 1), AUClast: 0.98
  Geometric Mean Ratio (Day 36/Day 1), Cmax: 1.13
